Data published in publication PMC4780411 (Journal of chemical information and modeling, 2015).

Columns and labels:
human ERβ = human ERβ (Homo sapiens, UniProt Q92731); assay: competitive radiometric binding assay with [3H]estradiol, ERβ
human ERα = molecular target: T1, human ERα (Homo sapiens, UniProt P03372); assay: competitive radiometric binding assay with [3H]estradiol, ERα
T1 sequence (P03372 1-595): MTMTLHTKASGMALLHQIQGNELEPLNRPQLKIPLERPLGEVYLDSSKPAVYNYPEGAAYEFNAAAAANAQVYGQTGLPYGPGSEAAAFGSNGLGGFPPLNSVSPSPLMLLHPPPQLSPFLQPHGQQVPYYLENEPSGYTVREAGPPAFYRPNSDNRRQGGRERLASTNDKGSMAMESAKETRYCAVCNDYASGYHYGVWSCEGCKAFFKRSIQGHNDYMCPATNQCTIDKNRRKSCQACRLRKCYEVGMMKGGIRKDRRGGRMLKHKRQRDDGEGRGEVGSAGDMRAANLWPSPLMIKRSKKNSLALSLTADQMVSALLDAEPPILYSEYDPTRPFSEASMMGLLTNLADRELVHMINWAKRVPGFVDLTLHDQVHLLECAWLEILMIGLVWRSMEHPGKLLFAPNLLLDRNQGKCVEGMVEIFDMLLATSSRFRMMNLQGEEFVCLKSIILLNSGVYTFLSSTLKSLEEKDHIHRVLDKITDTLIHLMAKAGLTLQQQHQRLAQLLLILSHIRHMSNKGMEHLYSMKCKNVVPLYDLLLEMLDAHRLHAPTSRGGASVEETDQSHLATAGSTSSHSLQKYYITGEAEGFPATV

human ERβ, sequence (Q92731 whole entry): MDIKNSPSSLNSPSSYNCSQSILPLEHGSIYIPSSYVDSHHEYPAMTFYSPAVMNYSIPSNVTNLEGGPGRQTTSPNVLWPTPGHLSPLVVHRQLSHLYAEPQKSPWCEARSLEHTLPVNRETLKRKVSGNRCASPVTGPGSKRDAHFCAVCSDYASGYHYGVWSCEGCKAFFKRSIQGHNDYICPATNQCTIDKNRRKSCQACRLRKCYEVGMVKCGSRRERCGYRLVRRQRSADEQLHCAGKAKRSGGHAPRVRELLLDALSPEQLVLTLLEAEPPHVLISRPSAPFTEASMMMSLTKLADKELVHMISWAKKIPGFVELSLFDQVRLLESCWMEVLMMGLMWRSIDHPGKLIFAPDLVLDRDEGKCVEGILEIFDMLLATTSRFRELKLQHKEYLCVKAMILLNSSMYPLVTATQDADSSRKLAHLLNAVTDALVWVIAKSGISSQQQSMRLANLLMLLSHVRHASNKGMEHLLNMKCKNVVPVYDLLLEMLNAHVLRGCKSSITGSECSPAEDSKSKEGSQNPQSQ

Ki (human ERβ): 3100 ± 900 nM
Ki (human ERα): 2560 ± 500 nM
SMILES: O=C1C[C@@H](c2ccc(O)cc2)Oc2cc(O)cc(O)c21 [NCI-34875, Naringenin]
